{"source": "patent US12240851B1", "about": "“Pyrido[3′,4′:4,5]pyrrolo[3,2-c]naphthyridine compounds as CK2 inhibitors” (KING FAISAL UNIVERSITY, priority 2023, dated 2025)", "key": {"PC3 (prostate)": {"test_system": "PC3 (prostate)", "experiment": "In vitro cytotoxic activity assay (MTT), PC3", "format": "cell-based", "conditions": "Homo sapiens, 96 hours exposure, read-out: IC50, 50% inhibition of cell proliferation", "procedure": "(§1) Compounds 1-15 were screened for their in vitro cytotoxic activity utilizing a 3-(4,5-dimethyl-thiazol-2-yl)-2,5-diphenyltetrazolium bromide (MTT) assay against selected cancer human cell lines consisting of PC3 (prostate), HCT116 (colon), A375 (melanoma), H1299 (lung), MIAPaCa-2 (pancreas), HL60 (leukemia), MCF7 (breast), MDA-MB-231 (breast) (T. Mosmann, J. Immunol. Meth., 1983, 65, 55-63). The cells were cultured at 37° C. in RMPI1640 medium supplemented with 10% fetal bovine serum, 50 IU/mL penicillin, and 50 µg/mL streptomycin in a 5% CO2 incubator. All cells were sub-cultured 3 times/week by trypsinisation. Viable cells were seeded and allowed to adhere for 12 h before a test drug was added in 96-well plates at an initial density of 1.0×10^5 cells/mL. Tumour cell lines were separately exposed to various concentrations of the tested compounds followed by incubation at a temperature of 37° C. during 96 h inside a medium of fresh RMPI 1640. Cells were subsequently incubated at 37° C. using MTT at 0.5 mg/mL during 4 h. After removal of supernatant, formazan crystals were dissolved in isopropanol and the optical density was measured at 570 nm. CX-4945 was used as a positive control."}, "HCT116 (colon)": {"test_system": "HCT116 (colon)", "experiment": "In vitro cytotoxic activity assay (MTT), HCT116", "format": "cell-based", "conditions": "Homo sapiens, HCT-116, 96 hours exposure, read-out: IC50, 50% inhibition of cell proliferation", "procedure": "as §1"}, "A375 (melanoma)": {"test_system": "A375 (melanoma)", "experiment": "In vitro cytotoxic activity assay (MTT), A375", "format": "cell-based", "conditions": "Homo sapiens, A-375, 96 hours exposure, read-out: IC50, 50% inhibition of cell proliferation", "procedure": "as §1"}, "H1299 (lung)": {"test_system": "H1299 (lung)", "experiment": "In vitro cytotoxic activity assay (MTT), H1299", "format": "cell-based", "conditions": "Homo sapiens, NCI-H1299, 96 hours exposure, read-out: IC50, 50% inhibition of cell proliferation", "procedure": "as §1"}, "MIAPaCa-2 (pancreas)": {"test_system": "MIAPaCa-2 (pancreas)", "experiment": "In vitro cytotoxic activity assay (MTT), MIAPaCa-2", "format": "cell-based", "conditions": "Homo sapiens, MIA PaCa-2, 96 hours exposure, read-out: IC50, 50% inhibition of cell proliferation", "procedure": "as §1"}, "HL60 (leukemia)": {"test_system": "HL60 (leukemia)", "experiment": "In vitro cytotoxic activity assay (MTT), HL60", "format": "cell-based", "conditions": "Homo sapiens, HL-60, 96 hours exposure, read-out: IC50, 50% inhibition of cell proliferation", "procedure": "as §1"}, "MCF7 (breast)": {"test_system": "MCF7 (breast)", "experiment": "In vitro cytotoxic activity assay (MTT), MCF7", "format": "cell-based", "conditions": "Homo sapiens, 96 hours exposure, read-out: IC50, 50% inhibition of cell proliferation", "procedure": "as §1"}, "MDA-MB-231 (breast)": {"test_system": "MDA-MB-231 (breast)", "experiment": "In vitro cytotoxic activity assay (MTT), MDA-MB-231", "format": "cell-based", "conditions": "Homo sapiens, 96 hours exposure, read-out: IC50, 50% inhibition of cell proliferation", "procedure": "as §1"}, "[1]": {"target": "T1, recombinant human CK2 (RRββ-holoenzyme) (Homo sapiens, UniProt P68400)", "T1 construct": "purchased Millipore", "T1 sequence (P68400 whole entry)": "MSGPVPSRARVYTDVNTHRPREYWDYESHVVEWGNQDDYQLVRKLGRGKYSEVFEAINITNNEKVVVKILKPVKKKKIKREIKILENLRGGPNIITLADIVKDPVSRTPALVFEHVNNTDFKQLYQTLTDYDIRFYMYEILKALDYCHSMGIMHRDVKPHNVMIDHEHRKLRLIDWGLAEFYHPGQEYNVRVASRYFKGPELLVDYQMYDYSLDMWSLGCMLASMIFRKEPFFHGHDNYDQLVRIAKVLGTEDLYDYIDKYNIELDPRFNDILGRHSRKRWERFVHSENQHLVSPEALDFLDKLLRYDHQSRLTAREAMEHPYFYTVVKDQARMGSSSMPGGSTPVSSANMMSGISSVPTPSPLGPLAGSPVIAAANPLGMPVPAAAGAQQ", "T1 sequence (P67870 whole entry partner)": "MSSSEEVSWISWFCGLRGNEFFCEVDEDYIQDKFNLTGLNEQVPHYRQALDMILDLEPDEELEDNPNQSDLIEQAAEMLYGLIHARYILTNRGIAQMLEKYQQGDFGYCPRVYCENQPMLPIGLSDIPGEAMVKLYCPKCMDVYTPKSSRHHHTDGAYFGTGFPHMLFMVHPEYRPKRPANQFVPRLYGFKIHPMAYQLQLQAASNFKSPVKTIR", "experiment": "CK2 Kinase Assay (33P-ATP, filter plate)", "format": "biochemical", "conditions": "final ATP concentration 15 μM, 10 min at 30° C.; read-out: protein kinase CK2 IC50", "procedure": "CK2 Kinase Assay was conducted using the protocol as described in Pierre F. et al; J. Med. Chem. 2011, 54, 635-654. The tested compounds in aqueous solution were added at a volume of 10 μL to a reaction mixture comprising 10 μL of assay dilution buffer (ADB; 20 mM MOPS, pH 7.2, 25 mM β-glycerol phosphate, 5 mM EGTA, 1 mM sodium orthovanadate, and 1 mM dithiothreitol), 10 μL of substrate peptide (RRRDDDSDDD, dissolved in ADB at a concentration of 1 mM), 10 μL of recombinant human CK2 (RRββ-holoenzyme, 25 ng dissolved in ADB; Millipore). Reactions were initiated by the addition of 10 μL of ATP solution (90% 75 mMMgCl2, 75 μM ATP (final ATP concentration:15 μM) dissolved in ADB; 10% [γ-33P] ATP (stock 1mCi/100 μL; 3000 Ci/mmol (Perkin-Elmer) and maintained for 10 min at 30° C. The reactions were quenched with 100 μL of 0.75% phosphoric acid and then transferred to and filtered through a phosphor cellulose filter plate (Millipore). After washing each well five times with 0.75% phosphoric acid, the plate was dried under vacuum for 5 min and, following the addition of 15 μL of scintillation fluid to each well, the residual radioactivity was measured using a Wallac […]. The IC50 values were derived from eight concentrations of test inhibitors."}}}
{"smiles": "Clc1cccc(Nc2nc3c4cnccc4[nH]c3c3cnccc23)c1", "note": "[Compound (1), N-(3-chlorophenyl)-11H-pyrido[3′,4′:4,5]pyrrolo[3,2-c][2,6]naphthyridin-5-amine]", "values": [{"measurement": "IC50", "setting": "PC3 (prostate)", "value": 800, "unit": "nM"}, {"measurement": "IC50", "setting": "HCT116 (colon)", "value": 1500, "unit": "nM"}, {"measurement": "IC50", "setting": "A375 (melanoma)", "value": 4000, "unit": "nM"}, {"measurement": "IC50", "setting": "H1299 (lung)", "value": 1100, "unit": "nM"}, {"measurement": "IC50", "setting": "MIAPaCa-2 (pancreas)", "value": 1400, "unit": "nM"}, {"measurement": "IC50", "setting": "HL60 (leukemia)", "value": 3200, "unit": "nM"}, {"measurement": "IC50", "setting": "MCF7 (breast)", "value": 2500, "unit": "nM"}, {"measurement": "IC50", "setting": "MDA-MB-231 (breast)", "value": 2900, "unit": "nM"}, {"measurement": "IC50", "setting": "[1]", "value": 21, "unit": "nM"}]}
